According to paper PMC3388080 (PLoS ONE, 2012):

Legend:
Experiment in all cases: CEREP radioligand binding
Settings in all cases: % of control specific binding
[1] = biological target: T1, CCKA (h) (CCK1) (Homo sapiens, UniProt P32238)
T1 construct: purchased CEREP
Protocol: (§1) SB-334867 was evaluated in a selectivity screen performed at CEREP (Paris, France). The screen consisted of binding assays on a panel of 79 target receptors. The specific binding (SB) of a radioligand to each target receptor was defined as the difference between the total binding and the nonspecific binding determined in the presence of a cold competitor in excess. […] Details on the CEREP screen are available from www.cerep.fr.

[2] = biological target: T2, mu (h) (MOP) (agonist site) (Homo sapiens, UniProt P35372)
T2 construct: purchased CEREP
Protocol: as §1

[3] = biological target: T3, Y1 (h) (Homo sapiens, UniProt P25929)
T3 construct: purchased CEREP
Protocol: as §1

[4] = biological target: T4, NE transporter (h) (Homo sapiens, UniProt P23975)
T4 construct: purchased CEREP
T4 sequence (P23975 whole entry): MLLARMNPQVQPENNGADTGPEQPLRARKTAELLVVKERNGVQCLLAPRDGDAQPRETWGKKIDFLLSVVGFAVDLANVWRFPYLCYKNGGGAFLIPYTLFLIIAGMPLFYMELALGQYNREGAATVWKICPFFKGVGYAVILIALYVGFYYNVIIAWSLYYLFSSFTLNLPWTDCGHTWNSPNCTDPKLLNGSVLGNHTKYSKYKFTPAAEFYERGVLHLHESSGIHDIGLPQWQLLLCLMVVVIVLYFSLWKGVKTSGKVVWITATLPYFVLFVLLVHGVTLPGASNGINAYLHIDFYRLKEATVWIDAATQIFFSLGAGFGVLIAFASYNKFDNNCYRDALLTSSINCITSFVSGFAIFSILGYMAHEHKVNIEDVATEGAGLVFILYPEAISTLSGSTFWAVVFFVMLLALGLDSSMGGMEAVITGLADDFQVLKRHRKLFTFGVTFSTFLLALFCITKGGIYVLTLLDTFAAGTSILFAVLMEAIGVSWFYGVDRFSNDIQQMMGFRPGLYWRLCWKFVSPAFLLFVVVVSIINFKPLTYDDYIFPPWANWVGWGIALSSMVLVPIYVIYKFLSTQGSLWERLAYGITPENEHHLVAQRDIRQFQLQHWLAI
Protocol: as §1

[5] = biological target: T5, 5-HT3 (h) (Homo sapiens, UniProt P46098)
T5 construct: purchased CEREP
T5 sequence (P46098 24-478): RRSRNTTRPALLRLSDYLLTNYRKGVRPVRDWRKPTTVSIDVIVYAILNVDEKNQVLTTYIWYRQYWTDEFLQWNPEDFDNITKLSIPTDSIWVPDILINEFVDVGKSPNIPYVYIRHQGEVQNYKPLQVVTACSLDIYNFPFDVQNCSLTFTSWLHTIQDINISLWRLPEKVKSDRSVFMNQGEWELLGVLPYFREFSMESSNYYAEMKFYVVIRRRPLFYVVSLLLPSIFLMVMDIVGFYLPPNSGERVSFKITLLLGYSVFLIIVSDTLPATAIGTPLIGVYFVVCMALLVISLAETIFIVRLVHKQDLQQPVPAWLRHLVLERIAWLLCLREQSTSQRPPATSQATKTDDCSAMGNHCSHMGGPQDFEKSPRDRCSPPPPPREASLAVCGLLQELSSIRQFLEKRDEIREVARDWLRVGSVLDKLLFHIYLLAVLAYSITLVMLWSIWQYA
Protocol: as §1

[6] = biological target: T6, CB1 (h) (Homo sapiens, UniProt P21554)
T6 construct: purchased CEREP
T6 sequence (P21554 whole entry): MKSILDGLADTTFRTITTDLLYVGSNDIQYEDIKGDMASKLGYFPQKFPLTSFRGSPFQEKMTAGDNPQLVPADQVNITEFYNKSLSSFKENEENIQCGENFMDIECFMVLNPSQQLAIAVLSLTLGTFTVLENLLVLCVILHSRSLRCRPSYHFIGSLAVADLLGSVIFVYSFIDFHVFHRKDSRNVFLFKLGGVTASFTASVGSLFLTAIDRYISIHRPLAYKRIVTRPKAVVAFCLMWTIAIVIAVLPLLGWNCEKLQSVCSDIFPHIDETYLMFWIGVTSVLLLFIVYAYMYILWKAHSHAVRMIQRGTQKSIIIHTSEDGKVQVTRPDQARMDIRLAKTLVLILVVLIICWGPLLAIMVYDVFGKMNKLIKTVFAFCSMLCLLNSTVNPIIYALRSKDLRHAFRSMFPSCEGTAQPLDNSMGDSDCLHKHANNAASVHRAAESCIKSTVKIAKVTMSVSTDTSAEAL
Protocol: as §1

[7] = biological target: T7, CXCR2 (h) (IL-8B) (Homo sapiens, UniProt P25025)
T7 construct: purchased CEREP
Protocol: as §1

[8] = biological target: T8, M5 (h) (Homo sapiens, UniProt P08912)
T8 construct: purchased CEREP
Protocol: as §1

[9] = biological target: T9, 5-HT1B (Rattus norvegicus, UniProt P28564)
T9 construct: purchased CEREP
Protocol: as §1

[10] = biological target: T10, GAL2 (h) (Homo sapiens, UniProt O43603)
T10 construct: purchased CEREP
T10 sequence (O43603 whole entry): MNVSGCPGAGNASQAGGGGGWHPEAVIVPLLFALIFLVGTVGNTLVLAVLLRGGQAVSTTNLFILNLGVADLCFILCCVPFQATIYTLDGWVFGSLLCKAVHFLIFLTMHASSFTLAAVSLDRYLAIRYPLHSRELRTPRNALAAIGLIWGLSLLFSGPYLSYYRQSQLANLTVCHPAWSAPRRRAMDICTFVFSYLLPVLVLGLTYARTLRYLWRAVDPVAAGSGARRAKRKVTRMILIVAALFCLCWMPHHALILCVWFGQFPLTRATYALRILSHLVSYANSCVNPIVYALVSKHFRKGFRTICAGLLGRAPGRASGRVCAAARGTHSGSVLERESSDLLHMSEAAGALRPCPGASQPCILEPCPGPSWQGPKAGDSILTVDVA
Protocol: as §1

[11] = biological target: T11, 5-HT5A (h) (Homo sapiens, UniProt P47898)
T11 construct: purchased CEREP
T11 sequence (P47898 whole entry): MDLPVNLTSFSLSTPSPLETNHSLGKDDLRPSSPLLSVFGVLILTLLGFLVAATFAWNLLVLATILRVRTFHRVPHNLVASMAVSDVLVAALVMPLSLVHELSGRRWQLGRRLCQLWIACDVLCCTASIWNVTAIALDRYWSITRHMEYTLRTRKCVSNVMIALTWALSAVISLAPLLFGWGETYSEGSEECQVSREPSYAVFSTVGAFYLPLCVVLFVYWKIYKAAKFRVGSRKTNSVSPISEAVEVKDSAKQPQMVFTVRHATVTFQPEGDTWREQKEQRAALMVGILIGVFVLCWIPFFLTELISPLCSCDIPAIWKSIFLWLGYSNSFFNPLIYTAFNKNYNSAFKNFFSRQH
Protocol: as §1

[12] = biological target: T12, beta 1 (h) (Homo sapiens, UniProt P08588)
T12 construct: purchased CEREP
Protocol: as §1

[13] = biological target: T13, PACAP (h) (PAC1) (Homo sapiens, UniProt P41586)
T13 construct: purchased CEREP
Protocol: as §1

[14] = biological target: T14, DA transporter (h) (Homo sapiens, UniProt Q01959)
T14 construct: purchased CEREP
T14 sequence (Q01959 whole entry): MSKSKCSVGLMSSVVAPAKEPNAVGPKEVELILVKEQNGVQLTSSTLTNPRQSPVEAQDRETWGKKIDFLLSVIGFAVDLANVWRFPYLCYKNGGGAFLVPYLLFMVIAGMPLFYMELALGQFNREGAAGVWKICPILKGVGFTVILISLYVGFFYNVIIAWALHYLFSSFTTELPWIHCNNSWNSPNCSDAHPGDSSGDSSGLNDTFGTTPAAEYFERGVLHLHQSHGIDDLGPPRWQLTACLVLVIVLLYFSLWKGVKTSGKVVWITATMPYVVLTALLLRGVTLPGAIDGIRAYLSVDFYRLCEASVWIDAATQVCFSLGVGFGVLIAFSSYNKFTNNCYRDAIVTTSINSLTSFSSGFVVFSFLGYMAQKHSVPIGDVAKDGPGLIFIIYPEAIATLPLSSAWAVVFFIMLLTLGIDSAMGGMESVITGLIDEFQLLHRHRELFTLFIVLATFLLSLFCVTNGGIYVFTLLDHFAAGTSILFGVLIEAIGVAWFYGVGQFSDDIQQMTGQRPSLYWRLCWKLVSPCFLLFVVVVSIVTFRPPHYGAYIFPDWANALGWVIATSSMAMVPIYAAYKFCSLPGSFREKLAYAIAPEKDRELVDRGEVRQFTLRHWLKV
Protocol: as §1

[15] = biological target: T15, AT1 (h) (Homo sapiens, UniProt P30556)
T15 construct: purchased CEREP
T15 sequence (P30556 whole entry): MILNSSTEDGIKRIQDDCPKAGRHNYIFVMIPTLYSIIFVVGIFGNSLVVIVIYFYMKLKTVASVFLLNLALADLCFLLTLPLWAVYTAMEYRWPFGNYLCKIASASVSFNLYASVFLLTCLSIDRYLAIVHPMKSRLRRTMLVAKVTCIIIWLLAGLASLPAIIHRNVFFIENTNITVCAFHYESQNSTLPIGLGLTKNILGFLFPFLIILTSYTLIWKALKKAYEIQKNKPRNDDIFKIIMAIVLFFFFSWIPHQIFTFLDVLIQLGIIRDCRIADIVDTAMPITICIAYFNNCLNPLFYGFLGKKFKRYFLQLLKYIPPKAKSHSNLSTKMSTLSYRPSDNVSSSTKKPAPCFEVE
Protocol: as §1

[16] = biological target: T16, D3 (h) (Homo sapiens, UniProt P35462)
T16 construct: purchased CEREP
Protocol: as §1

[17] = biological target: T17, M3 (h) (Homo sapiens, UniProt P20309)
T17 construct: purchased CEREP
T17 sequence (P20309 whole entry): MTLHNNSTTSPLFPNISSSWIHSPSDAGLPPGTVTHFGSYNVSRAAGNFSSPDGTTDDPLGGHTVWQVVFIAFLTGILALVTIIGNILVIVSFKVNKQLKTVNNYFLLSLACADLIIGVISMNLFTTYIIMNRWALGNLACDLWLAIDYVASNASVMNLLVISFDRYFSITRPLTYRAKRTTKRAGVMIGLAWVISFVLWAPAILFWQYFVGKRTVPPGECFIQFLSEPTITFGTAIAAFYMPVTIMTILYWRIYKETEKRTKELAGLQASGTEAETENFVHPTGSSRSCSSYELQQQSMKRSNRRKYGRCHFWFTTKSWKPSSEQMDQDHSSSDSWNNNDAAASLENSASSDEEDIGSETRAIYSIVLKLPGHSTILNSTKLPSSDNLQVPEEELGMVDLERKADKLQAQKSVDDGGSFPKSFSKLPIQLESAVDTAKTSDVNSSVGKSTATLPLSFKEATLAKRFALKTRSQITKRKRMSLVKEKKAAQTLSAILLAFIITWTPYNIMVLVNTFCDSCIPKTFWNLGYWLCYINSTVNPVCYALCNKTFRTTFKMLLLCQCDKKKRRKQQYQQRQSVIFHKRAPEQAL
Protocol: as §1

[18] = biological target: T18, MC4 (h) (Homo sapiens, UniProt P32245)
T18 construct: purchased CEREP
T18 sequence (P32245 whole entry): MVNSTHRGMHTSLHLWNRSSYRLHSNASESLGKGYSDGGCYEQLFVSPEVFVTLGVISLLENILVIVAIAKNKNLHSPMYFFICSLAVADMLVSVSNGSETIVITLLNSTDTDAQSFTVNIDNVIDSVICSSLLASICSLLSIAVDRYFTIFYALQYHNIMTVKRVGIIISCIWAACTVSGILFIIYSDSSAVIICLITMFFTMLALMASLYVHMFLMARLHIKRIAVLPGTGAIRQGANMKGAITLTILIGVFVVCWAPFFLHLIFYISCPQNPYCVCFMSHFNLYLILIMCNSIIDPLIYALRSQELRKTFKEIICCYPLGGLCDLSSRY
Protocol: as §1

T1 sequence (P32238 whole entry): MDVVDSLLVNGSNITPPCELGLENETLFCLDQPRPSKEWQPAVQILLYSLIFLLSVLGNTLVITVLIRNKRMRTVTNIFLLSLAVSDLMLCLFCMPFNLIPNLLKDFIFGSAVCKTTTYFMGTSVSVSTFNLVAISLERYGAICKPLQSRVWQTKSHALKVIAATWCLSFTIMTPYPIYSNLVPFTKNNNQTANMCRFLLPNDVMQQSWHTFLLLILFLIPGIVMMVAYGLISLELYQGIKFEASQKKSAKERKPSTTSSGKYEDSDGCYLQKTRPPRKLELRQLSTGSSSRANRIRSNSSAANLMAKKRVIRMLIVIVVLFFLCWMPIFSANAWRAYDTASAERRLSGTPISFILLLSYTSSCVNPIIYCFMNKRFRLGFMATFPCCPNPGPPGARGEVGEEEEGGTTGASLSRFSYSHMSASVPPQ

Cc1nc2ccc(NC(=O)Nc3ccnc4cccnc34)cc2o1.Cl [SB-334867, 1-(2-methylbenzoxazol-6-yl)-3-[1], [5]naphthyridin-4-yl-urea hydrochloride]
% Control (10 µM) Mean SB [1]: 108.8% | % Control (10 µM) Mean SB [2]: 86.3% | % Control (10 µM) Mean SB [3]: 102.7% | % Control (10 µM) Mean SB [4]: 49.4% | % Control (10 µM) Mean SB [5]: 93.9% | % Control (10 µM) Mean SB [6]: 104.1% | % Control (10 µM) Mean SB [7]: 110.5% | % Control (10 µM) Mean SB [8]: 103.3% | % Control (10 µM) Mean SB [9]: 85.9% | % Control (10 µM) Mean SB [10]: 97.3% | % Control (10 µM) Mean SB [11]: 84.1% | % Control (10 µM) Mean SB [12]: 85.7% | % Control (10 µM) Mean SB [13]: 107.7% | % Control (10 µM) Mean SB [14]: 72.4% | % Control (10 µM) Mean SB [15]: 102.3% | % Control (10 µM) Mean SB [16]: 97.1% | % Control (10 µM) Mean SB [17]: 73.1% | % Control (10 µM) Mean SB [18]: 97.9%
